Laboratory results published in patent US20230126310A1 (priority 2020, published 2023).
Where a name gives a salt, the structure may show the parent alone. Read-outs that look alike come from different tables or passages of the source.

Tests used:
[1] = system: SARS-CoV-2 (BetaCov/Belgium/GHB-03021/2020); experiment: microbe, parasite or virus in culture; assay type: cell-based; details: for Emax / IC50: Severe acute respiratory syndrome coronavirus 2, 120 h; for Emax: read-out: Maximum confluence reached (%)
CaCo-2 cells = experiment: Compound cytotoxicity against CaCo-2 cells at 48 hours; assay type: cell-based, Human; details: read-out: CC50: concentration of 50% cytotoxicity; Table 5, further results of Examples 1 and 2; mean ± spread
Experimental: (§1) The cytotoxicity of the profiled compounds towards CaCo-2 cells at 48 hours was assessed. […] After 48 hours, cytotoxicity was evaluated using both digital phase contrast readout as described above and ATP determination (Cell titre-glo, Promega Corp).

SARS-CoV-2 [2] = details: for % Inh. (% Inhibition of SARS-CoV-2): 10 µM; for % Inh (% inhibition of virus infection): comparative experiments, Examples 1 and 2
[3] = Compound cytotoxicity against CaCo-2 cells at 48 hours; assay type: cell-based, Human; details: human, CaCo-2 cells
Experimental: as §1

SARS-CoV-2 [4] = experiment: microbe, parasite or virus in culture; details: Severe acute respiratory syndrome coronavirus 2, Caco-2, 48 h; for inhibition at 10 µM: read-out: % Inh. (% Inhibition of SARS-CoV-2)
[5] = Table 5, further results of Examples 1 and 2
[6] = read-out: IC50: concentration of 50% inhibition of virus infection, Table 5, further results of Examples 1 and 2, […]
[7] = comparative experiments, 48 hours
[8] = Table 5, further results of Examples 1 and 2, mean ± spread

O=C(CCCN1CCC2(CC1)C(=O)N(Cc1cccc(F)c1)CN2c1ccccc1)c1ccc(F)cc1.O=C(O)/C=C\C(=O)O [3′-fluorobenzylspiperone]
Maximum confluence reached (%) [1]: 43.04%

FC(F)(F)Oc1ccc2nc(-c3ccc(OCCOCCOc4ccc(-c5nc6ccc(OC(F)(F)F)cc6[nH]5)nc4)cn3)[nH]c2c1 [AI-10-49]
CC50 (CaCo-2 cells): 6.58 ± 9.76 µM
pIC50 (SARS-CoV-2 [2]): 6.68
% Inh. (% Inhibition of SARS-CoV-2) (SARS-CoV-2 [2]): 103.8%
pIC50: -log10 of IC50 (SARS-CoV-2 [2]; [5]): 6.72
IC50 (SARS-CoV-2 [2]; [6]): 0.19 ± 0.06 µM

CC(C)(C)c1ccc(/C=C/C(=O)Nc2ccc3c(c2)OCCO3)cc1 [AMG-9810]
CC50 (CaCo-2 cells): 14.2 ± 17.9 µM
% Inh. (% Inhibition of SARS-CoV-2) (SARS-CoV-2 [2]): 93.7%

CCS(=O)(=O)N(Cc1cccnc1)c1cccc(-c2ccc(C#N)cc2)c1 [CBiPES]
CC50 (CaCo-2 cells): 13.4 ± 6.58 µM
% Inh. (% Inhibition of SARS-CoV-2) (SARS-CoV-2 [2]): 139.6%
pIC50: -log10 of IC50 (SARS-CoV-2 [2]; [5]): 4.77
IC50 (SARS-CoV-2 [2]; [6]): 17.1 ± 1.17 µM

Cl.Nc1nc(NCC2CCC(CNS(=O)(=O)c3cccc4ccccc34)CC2)nc2ccccc12 (stereo not shown) [CGP-71683]
% Inh. (% Inhibition of SARS-CoV-2) (SARS-CoV-2 [2]): 102.5%
Maximum confluence reached (%) [1]: 39.25%

C[C@@H]1C[C@@H]([C@H](O)CC2CC(=O)NC(=O)C2)C(=O)[C@@H](C)C1 [CYCLOHEXIMIDE]
Emax [1]: 63.7%

CN(C)C(=O)COC(=O)Cc1ccc(OC(=O)c2ccc(NC(=N)N)cc2)cc1 [Camostat Mesilate (FOY-305), Camostat Mesilate]
CC50 at 48 h [3, 7]: > 20 µM
% Inh (% inhibition of virus infection) (SARS-CoV-2 [2]): 86.9%

CC(C)C(=O)OCC(=O)[C@@]12O[C@H](C3CCCCC3)O[C@@H]1C[C@H]1[C@@H]3CCC4=CC(=O)C=C[C@]4(C)[C@H]3[C@@H](O)C[C@@]12C [Ciclesonide]
inhibition at 10 µM (SARS-CoV-2 [4]): 85.4%
IC50 [1]: 47 µM
Emax [1]: 35.2%

C=C(c1ccccc1OCc1cccc(Cl)c1)n1ccnc1 [Cloconazole HCl]
CC50 (CaCo-2 cells): 33 µM
% Inh. (% Inhibition of SARS-CoV-2) (SARS-CoV-2 [2]): 92.8%

CCCCC1(C2CCCC2)Cc2cc(OCCCC(=O)O)c(Cl)c(Cl)c2C1=O (stereo not shown) [DCPIB]
CC50 (CaCo-2 cells): 24.6 ± 11.7 µM
% Inh. (% Inhibition of SARS-CoV-2) (SARS-CoV-2 [2]): 80.3%

CC/C(=C(\c1ccc(O)cc1)c1ccc(OCCNC)cc1)c1ccccc1 [Endoxifen HCl]
IC50 [1]: 6.34 µM
Emax [1]: 35.7%

Cn1cc(-c2ccc3c(c2)CCN3C(=O)Cc2cccc(C(F)(F)F)c2)c2c(N)ncnc21 [GSK2606414]
CC50 (CaCo-2 cells): 70.4 ± 15.3 µM
IC50 (SARS-CoV-2 [2]): 0.2 µM
pIC50 (SARS-CoV-2 [2]): 6.70
% Inh. (% Inhibition of SARS-CoV-2) (SARS-CoV-2 [2]): 109.9%
pIC50: -log10 of IC50 (SARS-CoV-2 [2]; [5]): 6.60
IC50 (SARS-CoV-2 [2]; [6]): 0.25 ± 0.06 µM

O=C(O)Cc1cccc(OCCCN(Cc2cccc(C(F)(F)F)c2Cl)CC(c2ccccc2)c2ccccc2)c1 [GW-3965]
inhibition at 10 µM (SARS-CoV-2 [4]): 91.4%
Emax [1]: 38%

CCCCN(CCCC)CCC(O)c1cc2c(Cl)cc(Cl)cc2c2cc(C(F)(F)F)ccc12 (stereo not shown) [Halofantrine]
inhibition at 10 µM (SARS-CoV-2 [4]): 91.4%
Emax [1]: 51.8%

CC(=O)[C@]1(O)Cc2c(O)c3c(c(O)c2[C@@H](O[C@H]2C[C@H](N)[C@H](O)[C@H](C)O2)C1)C(=O)c1ccccc1C3=O [Idarubicin HCl]
IC50 (SARS-CoV-2 [4]): 25 µM
inhibition at 10 µM (SARS-CoV-2 [4]): 86.6%
IC50 (SARS-CoV-2 [4]; read-out: pIC50 (converted)): 25.1 µM
Emax [1]: 92.6%

Cc1nn(C)c2nc(NNC(=O)Nc3cc(Cl)nc(Cl)c3)cc(C(C)C)c12 [JTE-013]
CC50 (CaCo-2 cells): 16.4 ± 0.42 µM
IC50 (SARS-CoV-2 [2]): 3.66 µM
pIC50 (SARS-CoV-2 [2]): 5.44
% Inh. (% Inhibition of SARS-CoV-2) (SARS-CoV-2 [2]): 105.9%
pIC50: -log10 of IC50 (SARS-CoV-2 [2]; [5]): 5.22
IC50 (SARS-CoV-2 [2]; [6]): 5.97 ± 0.15 µM

Cc1cccc(C)c1OCC(=O)N[C@@H](Cc1ccccc1)[C@@H](O)C[C@H](Cc1ccccc1)NC(=O)[C@H](C(C)C)N1CCCNC1=O [Lopinavir (ABT-378), Lopinavir]
CC50 at 48 h [3, 8]: 2130 ± 3590 µM
inhibition at 10 µM (SARS-CoV-2 [4]): 56.6%

CCOC(=O)O[C@]1(C(=O)OCCl)CC[C@H]2[C@@H]3CCC4=CC(=O)C=C[C@]4(C)[C@H]3[C@@H](O)C[C@@]21C [Loteprednol etabonate]
CC50 at 48 h [3, 8]: 49 ± 45.9 µM
IC50 (SARS-CoV-2 [4]): 21.3 µM
inhibition at 10 µM (SARS-CoV-2 [4]): 102%
IC50 (SARS-CoV-2 [4]; read-out: pIC50 (converted)): 21.4 µM

OC(c1cc(C(F)(F)F)nc2c(C(F)(F)F)cccc12)C1CCCCN1 (stereo not shown) [MEFLOQUINE HYDROCHLORIDE]
CC50 at 48 h [3, 8]: 33 ± 7.96 µM
IC50 (SARS-CoV-2 [4]): 28.9 µM
inhibition at 10 µM (SARS-CoV-2 [4]): 93.3%
IC50 (SARS-CoV-2 [4]; read-out: pIC50 (converted)): 28.8 µM

Cc1ccc(NC(=O)c2ccc(CN3CCN(C)CC3)cc2)cc1Nc1nc(-c2cccnc2)cs1 [Masitinib (AB1010), Masitinib]
inhibition at 10 µM (SARS-CoV-2 [4]): 108%
Emax [1]: 57.1%

CC(C)S(=O)(=O)NC[C@H](C)c1ccc(-c2ccc(CCNS(C)(=O)=O)cc2)cc1 [Mibampator]
CC50 at 48 h [3, 8]: 8.66 ± 1.75 µM
IC50 (SARS-CoV-2 [4]): 2.23 µM
inhibition at 10 µM (SARS-CoV-2 [4]): 90.1%
IC50 (SARS-CoV-2 [4]; read-out: pIC50 (converted)): 2.24 µM

N=C(N)c1ccc2cc(OC(=O)c3ccc(N=C(N)N)cc3)ccc2c1 [Nafamostat mesylate]
CC50 at 48 h [3, 7]: > 20 µM
% Inh (% inhibition of virus infection) (SARS-CoV-2 [2]): 89.8%
